{
  "source": "patent US20060106028A1",
  "about": "“Polycyclic aromatics and derivatives thereof and processes for their preparation” (priority 2004, published 2006)",
  "key": {"[1]": {"test_system": "Escherichia coli (ATCC™ 25922)", "assay": "Antibacterial activity (NCCLS M7-A5)", "type": "cell-based", "conditions": "MH medium"}, "[2]": {"test_system": "Streptococcus pneumoniae (LSPQ 3412)", "assay": "Antibacterial activity, MIC (NCCLS M7-A5)", "type": "cell-based", "conditions": "MH medium +2% lysed horse blood"}, "[3]": {"test_system": "MDA-MB-231 (mammary gland adenocarcinoma)", "assay": "In vitro tumor growth inhibition (GI50, propidium iodide)", "type": "cell-based", "conditions": "Homo sapiens, 96 hrs"}, "[4]": {"test_system": "Clostridium difficile (ATCC™ 9689)", "assay": "Antibacterial activity, MIC (NCCLS M11-A5, anaerobic)", "type": "cell-based", "conditions": "Clostridioides difficile; Brucella medium with hemin, vitamin K1 and 5% lysed horse blood; read-out: MIC", "experimental": "Antibacterial activity of Compounds 1 and 2 (Table 7) was measured by determining the minimal inhibitory concentration (MIC) necessary to obtain a complete inhibition of bacteria growth in seven indicator strains, namely Staphylococcus aureus (ATCC™ 6538P), Staphylococcus aureus MRS3 (ATCC™ 700699), Enterococcus faecalis VRE-1 (ATCC™ 29212), Enterococcus faecalis VRE-2 (ATCC™ 51299), Escherichia coli (ATCC™ 25922), Streptococcus pneumoniae (LSPQ 3412) and Streptococcus pneumoniae PenR (LSPQ 3349). Indicator strains preparation and MIC determination were performed according to the National Committee for Clinical Laboratory Standards (NCCLS) guideline M7-A5 Methods for Dilution Antimicrobial Susceptibility Tests for Bacteria That Grow Aerobically; Approved Standard-Fifth Edition. (NCCLS document M7-A5, ISBN 1-56238-394-9; NCCLS, 940 West Valley Road, Suite 1400, Wayne, Pa. 19087-1898 USA), the content of which is incorporated herein by reference. MIC determination against C. difficile was performed according to National Committee for Clinical Laboratory Standards (NCCLS) guideline M11-A5 Methods for Antimicrobial Susceptibility Testing of Anaerobic Bacteria.\nCompounds 1 and 2 were prepared as 100× stock solutions in DMSO, with concentrations ranging from 3.2 mg/mL to 0.003 mg/mL (a two-fold dilution series over 11 points). An aliquot of each 100× stock solution was diluted 50-fold in test medium described below to give a set of eleven (11) 2× solutions. 50 μL of each of the eleven 2× solutions was aliquoted into the corresponding well of a 12-well row, with the final well reserved for medium alone control.\nVancomycin (Sigma™), used as positive control compound, was prepared as 2× stock solutions in Mueller-Hinton test medium ranging from 64 μg/mL to 0.06 μg/ml (a two-fold dilution series over 11 points). An aliquot of 50 μL corresponding to each concentration (at 2×) was then transferred to 96-well microplates to obtain a series of eleven two-fold dilutions.\nAn isolated colony of each of the indicator strains was used to inoculate tubes containing 2 mL of test medium. […]"}, "[5]": {"assay": "In vivo toxicity: single-dose maximum tolerated dose in CD1 mice", "conditions": "mouse, other: i.v. or i.p. (intravenous or intraperitoneal), single-dose via i.v. or i.p. routes, 1% SDS formulation", "experimental": "(§1) Toxicity and therapeutic efficacy of polycyclic aromatic compounds can be determined by standard pharmaceutical procedures in cell cultures or experimental animals. Therapeutic efficacy is determined in animal models as described above and in the examples herein. Toxicity studies are done to determine the lethal dose for 10% of tested animals (LD10). Animals are treated at the maximum tolerated dose (MTD): the highest dose not producing mortality or greater than 20% body weight loss. The effective dose (ED) is related to the MTD in a given tumor model to determine the therapeutic index of the compound.\n(§2) In vivo toxicity: With CD1 mice, the maximum tolerated dose (MTD) for a single-dose via i.v. or i.p. routes in 1% SDS formulation was ≧5 mg/kg. The acute toxicity in CD-1 nu/nlu mice of Compound 1 was also determined in 6% Tween/4.5% Glycocholate/5% EtOH formulation."}, "36 cancer cell lines": {"test_system": "36 cancer cell lines", "assay": "In vitro cytotoxic activity, mean of all cell lines of the panel", "type": "cell-based", "conditions": "mean over the 36 cell lines", "experimental": "Culture conditions and activity evaluations of Compound 1 against 36 cancer cell lines were done as described below. Results were expressed as the concentration of drug which inhibits 50% of the cell growth (IC50, calculated using the formula: [Ti/C]×100=−50).\nThe compound was dissolved at 10 mM in DMSO. Dilution in vehicle to concentrations of 30, 10, 3, 1 and 0.3 μM were prepared immediately before assays. Depending on the cell line's growth characteristics, 4000-10000 cells were plated in two 96-wells pates (day 0) and incubated for 16 hours. The following day, propidium iodide was added to one of the two plates. Test compound was added to the second plate, as well as vehicle control, and cells further incubated for 96 hours. The compound was tested at each concentration and in triplicates. The equivalent cell number was determined after adding propidium iodide by measuring the signal by fluorescence (Ti for test article, C for control)."}, "CD-1 nu/nlu mice": {"test_system": "CD-1 nu/nlu mice", "assay": "Acute toxicity in CD-1 nu/nu mice", "type": "in vivo", "conditions": "i.v.; 6% Tween/4.5% Glycocholate/5% EtOH formulation", "experimental": "as §1, §2"}, "[6]": {"assay": "Acute toxicity in CD-1 nu/nu mice", "type": "in vivo", "conditions": "CD-1 nu/nu, mouse, in vivo, 6% Tween/4.5% Glycocholate/5% EtOH formulation", "experimental": "as §1, §2"}},
  "data": [
    {"smiles": "CCC(C)c1cc2c(=O)c3ccc4c(OC)c5c(=O)c6c(O)ccc(O)c6c(=O)c5c(O)c4c3c(=O)c2c(=O)n1CC(=O)N1CC(C(=O)O)NC(=O)C1C", "note": "(stereo not drawn) [Compound 1]", "values": [
      {"measurement": "Antibacterial activity", "setting": "[1]", "value": "inactive"},
      {"measurement": "MIC", "setting": "[2]", "value": "0.5 to 1", "unit": "µg/mL"},
      {"measurement": "GI50", "setting": "[3]", "value": 14.6, "unit": "µM"},
      {"measurement": "MIC", "setting": "[4]", "value": 0.06, "unit": "µg/mL"},
      {"measurement": "MTD", "setting": "[5]", "value": "≥ 5", "unit": "mg/kg"},
      {"measurement": "IC50", "setting": "36 cancer cell lines", "value": 9.34, "unit": "µM"},
      {"measurement": "Injection site observation", "setting": "CD-1 nu/nlu mice", "value": "necrosis at the injection site was observed"},
      {"measurement": "MTD", "setting": "[6]; ip", "value": "≥ 50", "unit": "mg/kg"},
      {"measurement": "MTD", "setting": "[6]; iv", "value": 25, "unit": "mg/kg"}
    ]}
  ]
}
